Data from publication PMC8220418, “A fragment-based approach to assess the ligandability of ArgB, ArgC, ArgD and ArgF in the L-arginine biosynthetic pathway of Mycobacterium tuberculosis” (Computational and Structural Biotechnology Journal, 2021).

System: M. tuberculosis ΔargB
Format: cell-based, Mycobacterium tuberculosis

Row | Structure (SMILES) | Inhibitory activity on growth with arginine present
1 | O=c1cc[nH]c2c(C(F)(F)F)cccc12 [NMR446, 8-(trifluoromethyl)-1H-quinolin-4-one] | no inhibitory activity
2 | O=c1cc(C(F)(F)F)[nH]c2c(C(F)(F)F)cccc12 [NMR711, 2,8-bis(trifluoromethyl)-1H-quinolin-4-one] | inhibitory
3 | NC(N)=NOCC[C@H](N)C(=O)O [L-canavanine, reference compound] | no inhibitory activity
